Reference: patent US10759799B2, “Indazole containing macrocycles and therapeutic uses thereof” (Samumed, LLC, priority 2018, dated 2020)
Read-outs that look alike come from different tables or passages of the source.

Tests used:
[1] = DMF
[2] = target: recombinant DYRK1A kinase (Homo sapiens (Human), UniProt Q13627); assay: DYRK1A kinase assay (Ser/Thr 18 peptide Z-lyte, FRET); type: biochemical; settings: 30 μM ATP, one hour at room temperature, read-out: EC50 (μM) (IC50 per method)
Description: Representative compounds were screened using the assay procedure for DYRK1A kinase activity as described below.
(§1) The DYRK1A kinase assay was run using the Ser/Thr 18 peptide Z-lyte assay kit according to manufacturer's instructions (Life Technologies—a Division of Thermo-Fisher). This is a non-radioactive assay using fluorescence resonance energy transfer (FRET) between coumarin and fluorescein to detect kinase activity which is represented as a ratio of coumarin emission/fluorescein emission.
Briefly, recombinant DYRK1A kinase, ATP and Ser/Thr peptide 18 were prepared in 1× Kinase buffer to final concentrations of 0.19 μg/mL, 30 μM, and 4 μM respectively. The mixture was allowed to incubate with the representative compounds for one hour at room temperature. All reactions were performed in duplicate. Unphosphorylated (“0% Control”) and phosphorylated (“100% control”) forms of Ser/Thr 18 served as control reactions. Additionally, an 11-point dose-response curve of Staurosporine (1 uM top) was run to serve as a positive compound control.
After incubation, Development Reagent A was diluted in Development Buffer then added to the reaction and allowed to further incubate for one hour at room temperature. The plate was read at Ex 400 Em 455 to detect the coumarin signal and Ex 400 Em 520 to measure the signal (EnVision Multilabel Plate Reader, PerkinElmer).
The Emission ratio (Em) was calculated as a ratio of the coumarin (C) emission signal (at 445 nm)/Fluorescein (F) emission signal (at 520 nm). The percent phosphorylation was then calculated using the following formula: [1−((Em ratio×F100%)−C100%)/((C0%−C100%)+(Em ratio×(F100%−F0%)))].

[3] = tested on: primary human mesenchymal stem cells (hMSCs); assay: Chondrogenesis induction in hMSCs (Rhodamine B staining intensity, EC50); type: cell-based; settings: 6 days, Rhodamine B staining intensity of nodules
Description: Representative compounds were screened using primary human mesenchymal stem cells (hMSCs) to determine their ability to induce chondrogenesis (process by which cartilage is developed).
Primary human mesenchymal stem cells (hMSCs) were purchased from Lonza (Walkersville, Md.) and expanded in Mesenchymal Stem Cell Growth Media (Lonza). Cells between passage 2 and 4 were used for the experiments.
To image chondrogenic nodules, the cells were fixed using 4% formaldehyde (Electron Microscopy Sciences), and stained with 2 μg/mL Rhodamine B (Sigma-Aldrich) and 20 μM Nile Red (Sigma-Aldrich) [Johnson K., et. al, A Stem Cell-Based Approach to Cartilage Repair, Science, (2012), 336(6082). […] Rhodamine B staining intensity of nodules in each well was normalized to the average of 3 DMSO treated wells on the same plate using Excel (Microsoft Inc.). The normalized averages (fold change over DMSO) of 3 replicate wells for each compound concentration were calculated. EC50 values were calculated using non-linear regression curve fitting in Prism 8 (Graphpad Inc.). Due to solubility limitations of some of the compounds, curve fitting was incomplete, and the highest observed activity was extrapolated to the insoluble doses for accurate EC50 determinations.
EC50 values are reported. Further, using TGF-β3 as a positive control, the concentration of representative compounds required to induce equivalent levels of chondrogenesis is reported. In addition, the maximum activity of each compound and the respective dose that each compound reached maximum chondrogenesis activity is reported.

recombinant GSK3β kinase = recombinant GSK3β kinase (Homo sapiens (Human), UniProt P49841); assay: GSK3β kinase assay (Ser/Thr 09 peptide Z-lyte, FRET); type: biochemical; settings: 46 μM ATP, one hour at room temperature, read-out: EC50 (μM) (IC50 per method)
Description: Representative compounds were screened using the assay procedure for GSK3β kinase activity as described below.
as §1, with “GSK3β” for “DYRK1A”, “is” for “was”, “09” for “18”, “as” for “as a”
Briefly, recombinant GSK3β kinase, ATP and Ser/Thr peptide 09 are prepared in 1× Kinase buffer to final concentrations of 0.04 μg/mL, 46 μM, and 4 μM respectively. The mixture is allowed to incubate with the representative compounds for one hour at room temperature. All reactions were performed in duplicate. Unphosphorylated (“0% Control”) and phosphorylated (“100% control”) forms of […] serve as control reactions.
After incubation, diluted Development Buffer is added to the reaction and allowed to further incubate for one hour at room temperature. The plate is read at Ex 400 Em 455 to detect the coumarin signal and Ex 400 Em 520 to measure the signal (EnVision Multilabel Plate Reader, PerkinElmer).
The Emission ratio (Em) is calculated as a ratio of the coumarin (C) emission signal (at 445 nm)/Fluorescein (F) emission signal (at 520 nm). The percent phosphorylation is then calculated using the following formula: [1−((Em ratio×F100%)−C100%)/((C0%−C100%)+(Em ratio×(F100%−F0%)))].
Dose-response curves are generated and inhibitory concentration (IC50) values are calculated using non-linear regression curve fit in the Dotmatics' Studies Software (Bishops Stortford, UK).

[4] = tested on: SW480 colon carcinoma cells; assay: Cell viability assay (CellTiter-Glo) in SW480 cells; type: cell-based; settings: Homo sapiens; for EC50: 96 h, SW480 cell viability, four days, CellTiter-Glo
Procedure: Representative compounds were screened using the assay procedure to assess the effect on cell viability as described below.
SW480 colon carcinoma cells were transduced with a lentiviral vector expressing luciferase with a human Sp5 promoter consisting of a sequence of eight TCF/LEF binding sites. SW480 cells stably expressing the Sp5-Luc reporter gene and a hygromycin resistance gene were selected by treatment with 150 μg/mL of hygromycin for 7 days. These stably transduced SW480 cells were expanded in cell culture and used for all further screening activities.
For the Cell Viability Assays, the cells were plated at 2,000 cells/well in 384-well plates with a DMEM medium containing 1% fetal bovine serum, and 1% Penicillin-Streptomycin and incubated for […] at 37° C. and 5% CO2. Eight replicates of DMSO-treated cells served as controls and cells treated with compound were performed in duplicate.
After incubation, 10 μL of CellTiter-Glo (Promega) was added to each well allowed to incubate for approximately 12 minutes. This reagent “results in cell lysis and generation of a luminescent signal proportional to the amount of ATP present. The amount of ATP is directly proportional to the number of cells present in culture, in agreement with previous reports. The CellTiter-Glo Assay generates a “glow-type” luminescent signal, produced by the luciferase reaction (Promega.com)”.

[5] = tested on: Wnt activity (Sp5-Luc reporter, SW480 colon carcinoma cells); assay: Sp5-Luc reporter gene screening assay for Wnt activity in SW480 cells; type: cell-based; settings: Homo sapiens; Sp5-Luc reporter, SW480 cells, 36 to 48 hours
Description: The screening assay for Wnt activity is described as follows. Reporter cell lines can be generated by stably transducing cancer cell lines (e.g., colon cancer) or primary cells (e.g., IEC-6 intestinal cells) with a lentiviral construct that includes a Wnt-responsive promoter driving expression of the firefly luciferase gene.
SW480 colon carcinoma cells were transduced with a lentiviral vector expressing luciferase with a human Sp5 promoter consisting of a sequence of eight TCF/LEF binding sites. SW480 cells stably expressing the Sp5-Luc reporter gene and a hygromycin resistance gene were selected by treatment with 150 μg/mL of hygromycin for 7 days. These stably transduced SW480 cells were expanded in cell culture and used for all further screening activities. […] For Sp5-Luc reporter gene assays, the cells were plated at 4,000 cells/well in 384-well plates with a DMEM medium containing 1% fetal bovine serum, and 1% Penicillin-Streptomycin and incubated for 36 to 48 hours at 37° C. and 5% CO2. Following incubation, 15 μl of BriteLite Plus luminescence reagent (Perkin Elmer) was added to each well of the 384-well assay plates. The plates were placed on an orbital shaker for 2 min and then luminescence was quantified using the Envision (Perkin Elmer) plate reader. Readings were normalized to DMSO only treated cells, and normalized activities were utilized for EC50 calculations using the dose-response log (inhibitor) vs. response-variable slope (four parameters) nonlinear regression feature available in GraphPad Prism 5.0 (or Dotmatics).

[6] = tested on: primary human fibroblasts derived from IPF patients (LL29 cells); assay: Inhibition of TGF-β1 induced fibrosis (αSMA staining) in LL29 fibroblasts; type: cell-based; settings: Fibroblast, 96 h, LL29 cells, TGF-β1 20 ng/mL, 4 days, % αSMA positive cells
Procedure: Representative compounds were screened using primary human fibroblasts (derived from IPF patients) treated with TGF-β1 to determine their ability to inhibit the fibrotic process.
LL29 cells were plated at 1,500 cells/well in 70 μL/well F12 medium supplemented with 1% Fetal Bovine Serum. […] Wells treated with TGF-β1 and containing DMSO were used as positive control, and cells with only DMSO were negative control. […] Following incubation for 4 days, SYTOX green nucleic acid stain (Life Technologies [Thermo Fisher Scientific]) was added to the wells at a final concentration of 1 μM and incubated at room temperature for 30 min.

recombinant GSK3β kinase, sequence (P49841 whole entry): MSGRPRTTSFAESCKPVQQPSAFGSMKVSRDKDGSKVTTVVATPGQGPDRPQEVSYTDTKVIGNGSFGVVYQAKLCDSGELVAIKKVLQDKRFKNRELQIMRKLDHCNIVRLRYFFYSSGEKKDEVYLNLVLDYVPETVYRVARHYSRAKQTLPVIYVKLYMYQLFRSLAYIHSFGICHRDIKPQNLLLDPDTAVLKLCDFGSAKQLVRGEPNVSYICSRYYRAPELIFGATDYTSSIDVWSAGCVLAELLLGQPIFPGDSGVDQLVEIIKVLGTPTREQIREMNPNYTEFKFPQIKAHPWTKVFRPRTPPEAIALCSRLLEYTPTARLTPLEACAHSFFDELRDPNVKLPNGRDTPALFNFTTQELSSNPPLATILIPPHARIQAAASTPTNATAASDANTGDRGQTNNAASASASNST

Compound	IC50 [2] [µM]	EC50 [3] [nM]	IC50 (recombinant GSK3β kinase) [µM]	EC50 [4] [nM]	EC50 [5] [nM]	other results
CN1CCCn2cc(nn2)-c2nccc3[nH]c(nc23)-c2n[nH]c3ccc(cc23)-c2cncc(c2)C1	–	–	–	–	–	ring closure, isolated yield ([1]; from CNCc1cncc(-c2ccc3[nH]nc(-c4nc5c(-c6cn(CCCCl)nn6)nccc5[nH]4)c3c2)c1, amine bond, 19-membered ring, DIEA, 16.7 mM, 100.0 °C): 71.9%
O=C1CCc2cccc(c2)-c2cccc3[nH]c(nc23)-c2nn(C(c3ccccc3)(c3ccccc3)c3ccccc3)c3ccc(cc23)-c2cncc(c2)N1	–	–	–	–	–	ring closure, isolated yield ([1]; from Nc1cncc(-c2ccc3c(c2)c(-c2nc4c(-c5cccc(CCC(=O)O)c5)cccc4[nH]2)nn3C(c2ccccc2)(c2ccccc2)c2ccccc2)c1, amide bond, 18-membered ring, HATU/DIEA/DMAP, 17.5 mM, 70.0 °C): 49.2%
c1ccc(C(c2ccccc2)(c2ccccc2)n2nc3c4cc(ccc42)-c2cncc(c2)OCCCc2cccc(c2)-c2cccc4[nH]c-3nc24)cc1	–	–	–	–	–	ring closure, isolated yield ([1]; from Oc1cncc(-c2ccc3c(c2)c(-c2nc4c(-c5cccc(CCCBr)c5)cccc4[nH]2)nn3C(c2ccccc2)(c2ccccc2)c2ccccc2)c1, ether bond, 18-membered ring, K2CO3, 20.0 mM, 80.0 °C): 50.8%
O=C1CCc2cccc(c2)-c2ccnc3[nH]c(nc23)-c2n[nH]c3ccc(cc23)-c2cncc(c2)N1 [Compound 4, (Z)-2^3H,3^1H-5-aza-2(7,2)-imidazo[4,5-b]pyridina-3 (3,5)-indazola-4(3,5)-pyridina-1(1,3)-benzenacyclooctaphan-6-one]	0.204	69	0.494	> 10000	7660	inhibition at 10 µM ([4]; SW480, read-out: percent inhibition at 10 μM): 49.5%
O=C1CCCc2cccc(c2)-c2cccc3[nH]c(nc23)-c2n[nH]c3ccc(cc23)-c2cncc(c2)N1 [Compound 71]	0.014	3120	0.014	35	17	EC50 [6]: 21 nM
c1cc2cc(c1)-c1cccc3[nH]c(nc13)-c1n[nH]c3ccc(cc13)-c1cncc(n1)NCCO2 [Compound 109]	0.096	9	0.062	54	34	ring closure, isolated yield ([1]; from NCCOc1cccc(-c2cccc3[nH]c(-c4n[nH]c5ccc(-c6cncc(Cl)n6)cc45)nc23)c1, snar bond, 18-membered ring, DIEA, 19.0 mM, 110.0 °C): 26.4%
(Z)-5,10-Dimethyl-1^1H,2^1H-5,10-diaza-1(2,4)-imidazo[4,5-c]pyridina-2(3,5)-indazola-3(3,5)-pyridinacyclodecaphane	–	–	–	–	–	ring closure, isolated yield ([1]; amine bond, 18-membered ring, KI/DIEA, 42.4 mM, 90.0 °C): 9.7%
